Assay results taken from US4267184A, “Antiinflammatory 4,5-diaryl-2-(substituted-thio)pyrroles and their corresponding sulfoxides and sulfones” (E. I. Du Pont de Nemours and Company, priority 1980, dated 1981).

Key:
[1] = tested on: Adjuvant-Induced Arthritis in Rats; test: Established Adjuvant-Induced Arthritis in Rats; format: in vivo, Charles River Lewis male rats; conditions: for ED50: 168 h, oral gavage daily for 7 days, ED50% decrease from control paw volume
Protocol: A procedure for detecting and comparing the antiinflammatory activity of compounds in this series and standard drugs for which there is a good correlation with human efficacy is the adjuvant-induced arthritis test in rats.
(§1) The test procedures employed for determining antiinflammatory and analgesic activity are described below with test data included in Tables VII and VIII.
Charles River Lewis male rats (130-150 grams) are injected subcutaneously in plantar area of the right hind paw with 0.1 ml of adjuvant (Difco heat-killed, lyophilized Mycobacterium butyricum suspended in mineral oil 5 mg/ml). 20 Non-arthritic controls are injected with mineral oil. The animals are held for 2 weeks to allow development of arthritis. Paw volumes (uninjected, left hind paw) are measured and the adjuvant injected rats are culled and distributed to treatment groups of 10 of equal disease severity. Non-arthritic controls are distributed to 2 groups of 10. The rats are given oral doses of compound or PVA-Acacia (Polyvinyl Alcohol 1%, Gum Acacia, U.S.P. 5%, Methylparaben 0.5%) (10 ml/kg) by gavage on that day and on the 6 following days. One day after the last dose the paw volumes (uninjected, left hind paw) are measured using a Ugo Basile Volume Differential Meter Model 7101. [formula]
Dose-response regression lines of the % decrease are plotted on semi-log paper by visual fit and the ED50% decrease from control paw volume is determined by inspection.

[2] = tested on: phenylquinone writhing in mice; test: Phenylquinone Writhing Test (analgesic activity); format: in vivo, female white mice; conditions: Mus musculus, oral, phenylquinone i.p., effective analgesic dose for 50% of the mice
Source text: A procedure for detecting and comparing the analgesic activity of compounds in this series and standard drugs for which there is a good correlation with human efficacy is the phenylquinone writhing test.
as §1
The phenylquinone writhing test, modified from Siegmund, et al., Proc. Soc. Exp. Biol. Med. 95, 729 (1957), was employed. A test compound suspended in 1% methylcellulose was given orally to fasted (17-21 hours) female white mice, 5-20 animals per double blind test. Aqueous (0.01% phenyl-p-benzoquinone) phenylquinone was injected intraperitoneally at 24 minutes later using 0.20 ml per mouse. […] The effective analgesic dose for 50% of the mice (ED50) was calculated by the moving average method of Thompson, W. R., Bact. Rev. 11, 115-145 (1947).

[3] = Rattus norvegicus, Table VII, oral, read-out: percent reduction in paw volume at the indicated dose

## CN(C)c1ccc(-c2[nH]c(SC(F)(F)F)cc2-c2ccc(F)cc2)cc1 [Example 22]
[1]; Rattus norvegicus, Table VIII
  ED50: 8.8 mg/kg
[2]; Table VIII
  ED50: > 108 mg/kg

## Fc1ccc(-c2cc(SC(F)(F)F)[nH]c2-c2ccccc2)cc1 [Example 10]
[1]; [3]
  inhibition in vivo at 27 mg/kg: 22%
[2]; Table VII
  ED50: > 108 mg/kg

## Fc1ccc(-c2cc(SC(F)(F)C(F)F)[nH]c2-c2ccc(F)cc2)cc1 [Example 35, 4,5-Bis(4-fluorophenyl)-2-(1,1,2,2-tetrafluoroethylthio)pyrrole]
[1]; Rattus norvegicus, Table VII
  ED50: 4 mg/kg
[2]; Table VII
  ED50: > 108 mg/kg

## FC(F)(F)Sc1cc(-c2ccccc2)c(-c2ccc(Cl)c(Cl)c2)[nH]1 [Example 16]
[1]; Rattus norvegicus, Table VII
  ED50: 2.5 mg/kg
[2]; Table VII
  ED50: > 108 mg/kg

## [O-][S+](c1cc(-c2ccc(Cl)cc2)c(-c2ccc(Cl)cc2)[nH]1)C(F)(F)F (stereo not drawn) [Example 59]
[1]; Rattus norvegicus, Table VII
  ED50: 2.7 mg/kg
[2]; Table VII
  ED50: > 135 mg/kg

## Cc1ccc(-c2cc(SC(F)(F)F)[nH]c2-c2ccc(C)cc2)cc1 [Example 12]
[1]; Rattus norvegicus, Table VII
  ED50: 25 mg/kg
[2]; Table VII
  ED50: 16.2 mg/kg

## FC(F)(F)Sc1cc(-c2ccc(Cl)cc2)c(-c2ccccc2)[nH]1 [Example 11]
[1]; Rattus norvegicus, Table VII
  ED50: 25 mg/kg
[2]; Table VII
  ED50: > 108 mg/kg

## Fc1ccc(-c2cc(SC(F)(F)F)[nH]c2-c2ccc(Br)cc2)cc1 [Example 21]
[1]; Rattus norvegicus, Table VIII
  ED50: 3.5 mg/kg
[2]; Table VIII
  ED50: > 108 mg/kg

## COc1ccc(-c2[nH]c(SC(F)(F)F)c(C)c2-c2ccc(OC)cc2)cc1 [Example 32]
[1]; Rattus norvegicus, Table VIII
  ED50: 2.2 mg/kg

## Cc1c(SC(F)(F)F)[nH]c(-c2ccc(Cl)cc2)c1-c1ccc(Cl)cc1 [Example 30]
[1]; Rattus norvegicus, Table VIII
  ED50: 2 mg/kg
[2]; Table VIII
  ED50: > 108 mg/kg

## O=C(c1ccccc1)n1c(SC(F)(F)F)cc(-c2ccc(F)cc2)c1-c1ccc(F)cc1 [Example 76, 1-Benzoyl-4,5-bis(4-fluorophenyl)-2-(trifluoromethylthio)pyrrole]
[1]; Rattus norvegicus, Table VIII
  ED50: 6.6 mg/kg
[2]; Table VIII
  ED50: > 108 mg/kg

## CCOc1ccc(-c2[nH]c(SC(F)(F)F)cc2-c2ccc(F)cc2)cc1 [Example 5]
[1]; [3]
  inhibition in vivo at 27 mg/kg: 19%
[2]; Table VII
  ED50: > 130 mg/kg

## CSc1cc(-c2ccc(Cl)cc2)c(-c2ccc(Cl)cc2)[nH]1 [Example 38]
[1]; Rattus norvegicus, Table VII
  ED50: 10 mg/kg
[2]; Table VII
  ED50: > 108 mg/kg

## CCOc1ccc(-c2[nH]c(S(C)(=O)=O)cc2-c2ccc(F)cc2)cc1 [Example 63]
[1]; [3]
  inhibition in vivo at 25 mg/kg: 34%
[2]; Table VII
  ED50: > 108 mg/kg

## CCS(=O)(=O)c1cc(-c2ccc(Cl)cc2)c(-c2ccc(Cl)cc2)[nH]1 [Example 65]
[1]; [3]
  inhibition in vivo at 27 mg/kg: 23%
[2]; Table VII
  ED50: > 108 mg/kg

## CCOc1ccc(-c2[nH]c([S+]([O-])C(F)(F)F)cc2-c2ccc(F)cc2)cc1 (stereo not drawn) [Example 61]
[1]; [3]
  inhibition in vivo at 9 mg/kg: 14%
[2]; Table VII
  ED50: > 130 mg/kg

## FC(F)C(F)(F)Sc1cc(-c2ccc(Cl)cc2)c(-c2ccc(Cl)cc2)[nH]1 [Example 40]
[1]; [3]
  inhibition in vivo at 9 mg/kg: 36%
[2]; Table VII
  ED50: > 108 mg/kg

## Fc1ccc(-c2cc(SC(F)(F)F)[nH]c2-c2ccc(F)cc2)cc1 [Example 3, 4,5-bis(4-fluorophenyl)-2-(trifluoromethylthio)pyrrole]
[1]; Rattus norvegicus, Table VII
  ED50: 1.5 mg/kg
[2]; Table VII
  ED50: > 135 mg/kg

## Fc1ccc(-c2cc(SC(F)(F)F)[nH]c2-c2cccnc2)cc1 [Example 28]
[1]; Rattus norvegicus, Table VIII
  ED50: 0.04 mg/kg
[2]; Table VIII
  ED50: > 135 mg/kg

## [O-][S+](c1cc(-c2ccc(F)cc2)c(-c2ccc(F)cc2)[nH]1)C(F)(F)F (stereo not drawn) [Example 57]
[1]; Rattus norvegicus, Table VII
  ED50: 1 mg/kg
[2]; Table VII
  ED50: > 135 mg/kg

## O=S(=O)(c1ccccc1)n1c(SC(F)(F)F)cc(-c2ccc(F)cc2)c1-c1ccc(F)cc1 [Example 77]
[1]; Table VIII, oral, dose 9.0 (unit not given)
  Adjuvant Arthritis, value in parenthesis (percent reduction in paw volume/dose): 37%

## Cc1c(SC(F)(F)F)[nH]c(-c2ccccc2)c1-c1ccccc1 [Example 15]
[1]; Rattus norvegicus, Table VIII
  ED50: 7.5 mg/kg
[2]; Table VIII
  ED50: > 108 mg/kg

## Cc1ccc(-c2cc(S(C)(=O)=O)[nH]c2-c2ccc(C)cc2)cc1 [Example 72]
[1]; Rattus norvegicus, Table VII
  ED50: 90 mg/kg
[2]; Table VII
  ED50: 7.2 mg/kg

## COc1ccc(-c2cc(S(=O)(=O)C(F)(F)F)[nH]c2-c2ccc(OC)cc2)cc1 [Example 53]
[1]; [3]
  inhibition in vivo at 9 mg/kg: 36%
[2]; Table VII
  ED50: 78 mg/kg

## FC(F)(F)Sc1cc(-c2ccccc2)c(-c2ccccc2)[nH]1 [Example 1, 4,5-Diphenyl-2-(trifluoromethylthio)pyrrole]
[1]; [3]
  inhibition in vivo at 25 mg/kg: 36%
[2]; Table VII
  ED50: > 135 mg/kg

## Fc1ccccc1-c1cc(SC(F)(F)F)[nH]c1-c1ccccc1F [Example 19]
[1]; Table VIII, oral, dose 45 (unit not given)
  Adjuvant Arthritis, value in parenthesis (percent reduction in paw volume/dose): 29%
[2]; Table VIII
  ED50: > 108 mg/kg

## CSc1cc(-c2ccc(F)cc2)c(-c2ccc(Cl)cc2)[nH]1 [Example 44]
[1]; Rattus norvegicus, Table VII
  ED50: 25 mg/kg
[2]; Table VII
  ED50: > 108 mg/kg

## COc1ccc(-c2[nH]c(SC)cc2-c2ccc(F)cc2)cc1 [Example 45]
[1]; Rattus norvegicus, Table VII
  ED50: 37 mg/kg
[2]; Table VII
  ED50: 78 mg/kg

## COc1ccc(-c2[nH]c(SC(F)(F)F)cc2-c2ccccc2)cc1 [Example 20]
[1]; Table VIII, oral, dose 27 (unit not given)
  Adjuvant Arthritis, value in parenthesis (percent reduction in paw volume/dose): 44%
[2]; Table VIII
  ED50: 22 mg/kg

## [O-][S+](c1cc(-c2ccccc2)c(-c2ccccc2)[nH]1)C(F)(F)F (stereo not drawn) [Example 52]
[1]; [3]
  inhibition in vivo at 25 mg/kg: 31%
[2]; Table VII
  ED50: 30 mg/kg

## CCOC(=O)n1c(SC(F)(F)F)cc(-c2ccc(F)cc2)c1-c1ccc(F)cc1 [Example 75, 1-Ethoxycarbonyl-4,5-bis(4-fluorophenyl)-2-(trifluoromethylthio)pyrrole]
[1]; Rattus norvegicus, Table VIII
  ED50: 1.9 mg/kg
[2]; Table VIII
  ED50: > 108 mg/kg

## CCOc1ccc(-c2[nH]c(S(=O)(=O)C(F)(F)F)cc2-c2ccc(F)cc2)cc1 [Example 60]
[1]; Rattus norvegicus, Table VII
  ED50: 16 mg/kg
[2]; Table VII
  ED50: > 130 mg/kg

## Cc1c(SC(F)(F)F)[nH]c(-c2ccc(F)cc2)c1-c1ccc(F)cc1 [Example 31]
[1]; Rattus norvegicus, Table VIII
  ED50: 0.6 mg/kg
[2]; Table VIII
  ED50: > 135 mg/kg

## CS(=O)(=O)c1cc(-c2ccc(F)cc2)c(-c2ccc(Cl)cc2)[nH]1 [Example 67]
[1]; Rattus norvegicus, Table VII
  ED50: 50 mg/kg
[2]; Table VII
  ED50: 38 mg/kg

## CS(=O)(=O)c1cc(-c2ccc(Cl)cc2)c(-c2ccc(Cl)cc2)[nH]1 [Example 62]
[1]; Rattus norvegicus, Table VII
  ED50: 1.5 mg/kg
[2]; Table VII
  ED50: > 108 mg/kg

## CSc1cc(-c2ccc(F)cc2)c(-c2ccc(F)cc2)[nH]1 [Example 41]
[1]; [3]
  inhibition in vivo at 27 mg/kg: 19%
[2]; Table VII
  ED50: > 108 mg/kg

## COc1ccc(-c2cc(S(C)(=O)=O)[nH]c2-c2ccc(OC)cc2)cc1 [Example 54]
[1]; Rattus norvegicus, Table VII
  ED50: 1 mg/kg
[2]; Table VII
  ED50: 16 mg/kg

## COc1ccc(-c2[nH]c(SC(F)(F)F)cc2-c2ccc(Cl)cc2)cc1 [Example 9]
[1]; Rattus norvegicus, Table VII
  ED50: 6 mg/kg
[2]; Table VII
  ED50: > 108 mg/kg

## CS(=O)(=O)c1cc(-c2ccc(Cl)cc2)c(-c2ccc(F)cc2)[nH]1 [Example 66]
[1]; Rattus norvegicus, Table VII
  ED50: 27 mg/kg
[2]; Table VII
  ED50: > 135 mg/kg

## COc1ccc(-c2cc(SC(F)(F)F)[nH]c2-c2cccs2)cc1 [Example 18]
[1]; Rattus norvegicus, Table VIII
  ED50: ~100 mg/kg
[2]; Table VIII
  ED50: 78 mg/kg

## CS(=O)(=O)c1cc(-c2ccc(F)cc2)c(-c2ccc(F)cc2)[nH]1 [Example 64]
[1]; [3]
  inhibition in vivo at 27 mg/kg: 25%
[2]; Table VII
  ED50: > 108 mg/kg

## CSc1cc(-c2ccc(Cl)cc2)c(-c2ccc(F)cc2)[nH]1 [Example 43]
[1]; Rattus norvegicus, Table VII
  ED50: 20 mg/kg
[2]; Table VII
  ED50: > 108 mg/kg

## COc1ccc(-c2[nH]c(S(C)(=O)=O)cc2-c2ccc(F)cc2)cc1 [Example 68]
[1]; [3]
  inhibition in vivo at 27 mg/kg: 34%
[2]; Table VII
  ED50: 18 mg/kg

## CCCc1c(SC(F)(F)F)[nH]c(-c2ccc(F)cc2)c1-c1ccc(F)cc1 [Example 33]
[1]; Rattus norvegicus, Table VIII
  ED50: 6.5 mg/kg
[2]; Table VIII
  ED50: > 108 mg/kg

## CSc1cc(-c2ccc(F)cc2)c(-c2ccccc2)[nH]1 [Example 47]
[1]; Rattus norvegicus, Table VII, oral, dose 200 mg/kg, read-out: percent reduction in paw volume at the indicated dose
  inhibition in vivo at 200 mg/kg: 46%
